Laboratory results reported in PMC7731314, “Tropinone-Derived Alkaloids as Potent Anticancer Agents: Synthesis, Tyrosinase Inhibition, Mechanism of Action, DFT Calculation, and Molecular Docking Studies” (International Journal of Molecular Sciences, 2020).
Like-named read-outs stand apart in the source and are kept apart here.

Experiments:
RPMI 8226 cells = assay: Annexin V-FITC/PI cell death by flow cytometry, RPMI 8226; format: cell-based, human; conditions: for IC50: Homo sapiens, read-out: IC50 for apoptosis (concentration inducing apoptosis in 50% of cells)
Protocol: (§1) The quantitative analysis of compound 3a-induced cell death was performed using an Annexin V-fluorescein isothiocyanate (FITC)/propidium iodide (PI) apoptosis kit (BD Biosciences, BD Pharmingen™, San Jose, CA, USA) as previously described. Briefly, the RPMI 8226 or A549 cells growing on the 6-well plates in the culture medium with 2% FBS were subjected to increasing concentrations of compound 3a (2.5, 5, 10, 20, or 40 μM) for 24 and 48 h. After the treatment, the cells were harvested, centrifuged at 1000 rpm and room temperature (RT) for 5 min, washed twice with PBS, and stained with […] of AnnexinV-FITC and […] of PI. After incubation for 15 min in the dark at room temperature, the cells were immediately analyzed using FACS Calibur. The intensity of fluorescence of AnnexinV-FITC and PI stained cells was determined by acquisition of at least 10,000 events per sample within the rate >60 events/s. The FACS data were analyzed using Cell Quest Pro Version 6.0. for the Macintosh operating system. The data were analyzed to determine the percentage of viable, early apoptotic, late apoptotic, and necrotic cells.

mushroom tyrosinase = mushroom tyrosinase (Agaricus bisporus, UniProt C7FF04); assay: Kinetic analysis of the inhibition of tyrosinase (Lineweaver-Burk); format: biochemical; conditions: tyrosinase-catalyzed oxidation of L-DOPA
Sequence of mushroom tyrosinase (C7FF04 1-392): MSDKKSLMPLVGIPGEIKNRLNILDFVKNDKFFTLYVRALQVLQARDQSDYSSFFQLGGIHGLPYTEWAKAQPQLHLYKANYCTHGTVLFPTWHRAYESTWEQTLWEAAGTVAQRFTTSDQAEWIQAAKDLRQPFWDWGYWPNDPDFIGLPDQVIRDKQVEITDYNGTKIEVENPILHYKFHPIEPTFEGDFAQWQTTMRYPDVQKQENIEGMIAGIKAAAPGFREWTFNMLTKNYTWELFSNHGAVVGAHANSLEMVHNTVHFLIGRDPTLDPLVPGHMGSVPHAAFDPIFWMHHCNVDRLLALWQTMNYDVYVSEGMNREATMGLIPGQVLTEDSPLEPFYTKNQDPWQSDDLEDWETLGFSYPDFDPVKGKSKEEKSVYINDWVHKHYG
Protocol: To understand the mechanism of mushroom tyrosinase inhibition by new compounds 3a–3h, enzyme inhibition kinetic studies were performed. The mechanism of tyrosinase inhibition was determined using Lineweaver–Burk plot, which is a useful graphical method for analysis of the Michaelis–Menten equations used to determine the inhibition constant […].
A series of experiments were performed to determine the inhibition kinetics of compounds by following the already reported method. The inhibitor concentrations for compounds were 50 and 100 µM. Substrate L-DOPA concentration was between 100 and 250 µM in all kinetic studies. Maximal initial velocity was determined from the initial linear portion of absorbance up to ten minutes after addition of enzyme. The inhibition type of the enzyme, Michaelis constant (KM) and maximal velocity (Vmax) were determined by Lineweaver–Burk plots of inverse of velocities (1/V) versus inverse of substrate concentration 1/[L-DOPA] mM^−1.

[1] = tested on: human breast adenocarcinoma (MDA-MB-231) cell line; assay: MTT cell proliferation assay, MDA-MB-231; format: cell-based; conditions: MDA-MB-231, antiproliferative, MTT, 72 h, read-out: IC50 ± SD MDA-MB-231
From the text: (§2) The influence of the tested compounds on the proliferation of melanoma B16F10 and breast MDA-MB-231 cells was estimated with the MTT assay as described previously. The cells counted using an automated cell counter (Countess® II FL, Invitrogen by Thermo Fisher Scientific Inc., Waltham, MA USA) and plated in 96-well plates (Nunc Edge 2F, Thermo Fisher Scientific Inc.) at a density of 0.1 × 10^4 and 0.2 × 10^4 per well, respectively. A total of twenty-four hours later, drugs were applied with final concentration: 5, 0.5, 0.05, and 0.005 μg/mL, and after an additional seventy-two hours MTT staining was performed as follows: twenty microliters of 5 mg/mL MTT solution and was added to each well of 96-well plate incubated for 2 h. Subsequently, the medium was removed and crystals of formazan were solubilized in pure isopropanol. Absorbance readout was conducted immediately using plate reader Multiskan Spectrum at 570 nm (Thermo Electron Corporation, Waltham, MA, USA). The background optical density was measured in the wells filled with culture medium, without the cells. The biological evaluation was performed as three independent experiments. The IC50 values were calculated using ED50plus v 1.0 freeware software and the mean response and standard deviation were calculated using Excel software. All of the chemicals were obtained from Sigma-Aldrich.

[2] = tested on: mouse skin melanoma (B16-F10) cell line; assay: MTT cell proliferation assay, B16-F10; format: cell-based; conditions: B16-F10, antiproliferative, MTT, 72 h, read-out: IC50 ± SD B16-F10
From the text: as §2

[3] = tested on: human lung carcinoma (A549) cell line; assay: MTT cell proliferation assay, A549; format: cell-based; conditions: antiproliferative, 96 h, read-out: IC50 ± SD A549
Protocol: (§3) The influence of the tested compounds on the proliferation of RPMI 8226 and A549 cells was estimated with the MTT assay as described previously. Briefly, 1 × 10^4 cells/mL (RPMI 8226) or 0.2 × 10^4 (A549) cells per well were seeded into 96-well plates and cultured (in growth medium containing 10% FBS) with different concentrations of each compound ranging from 3.125 to 100 μM. The control cells were treated with the vehicle DMSO (0.1%).

[4] = tested on: human multiple myeloma (RPMI 8226) cell line; assay: MTT cell proliferation assay, RPMI 8226; format: cell-based; conditions: antiproliferative, 96 h, read-out: IC50 ± SD RPMI 8226
Protocol: as §3

A549 cells = assay: Annexin V-FITC/PI cell death by flow cytometry, A549; format: cell-based, human; conditions: for IC50: Homo sapiens, read-out: IC50 for apoptosis
Protocol: as §1

In the case of `CN1C2CCC1CC(=NNc1nc(-c3ccc(I)cc3)cs1)C2` [Compound 3a, 4-(4-Iodophenyl)-2-(2-(8-methyl-8-azabicyclo[3.2.1]octan-3-ylidene)hydrazinyl)thiazole], the IC50 (RPMI 8226 cells; RPMI 8226, 24 h) is reported as 14.6 µM, the IC50 (RPMI 8226 cells; RPMI 8226, 48 h) is reported as 7.91 µM and the “Apoptosis (early + late)” value (RPMI 8226 cells; RPMI 8226, 2.5 µM, 24 hours) is reported as 19.53 ± 2.64 % of cells ± SD. The Necrosis (RPMI 8226 cells; RPMI 8226, 2.5 µM, 24 hours) was 3.62 ± 0.87 % of cells ± SD, the “Apoptosis (early + late)” value (RPMI 8226 cells; RPMI 8226, 2.5 µM, 48 hours) was 20.93 ± 1.83 % of cells ± SD and the Necrosis (RPMI 8226 cells; RPMI 8226, 2.5 µM, 48 hours) was 5.54 ± 0.44 % of cells ± SD. For the same molecule, the “Apoptosis (early + late)” value (RPMI 8226 cells; RPMI 8226, 5 µM, 24 hours) was 22.23 ± 6.01 % of cells ± SD, the Necrosis (RPMI 8226 cells; RPMI 8226, 5 µM, 24 hours) was 6.35 ± 2.57 % of cells ± SD and the “Apoptosis (early + late)” value (RPMI 8226 cells; RPMI 8226, 5 µM, 48 hours) was 31.71 ± 11.36 % of cells ± SD. The Necrosis (RPMI 8226 cells; RPMI 8226, 5 µM, 48 hours) was 7.53 ± 2.61 % of cells ± SD, the “Apoptosis (early + late)” value (RPMI 8226 cells; RPMI 8226, 10 µM, 24 hours) was 39.58 ± 9.33 % of cells ± SD and the Necrosis (RPMI 8226 cells; RPMI 8226, 10 µM, 24 hours) was 9.94 ± 2.73 % of cells ± SD. The “Apoptosis (early + late)” value (RPMI 8226 cells; RPMI 8226, 10 µM, 48 hours) was 58.25 ± 21.57 % of cells ± SD, the Necrosis (RPMI 8226 cells; RPMI 8226, 10 µM, 48 hours) was 11.08 ± 5.38 % of cells ± SD and the “Apoptosis (early + late)” value (RPMI 8226 cells; RPMI 8226, 20 µM, 24 hours) was 60.41 ± 0.99 % of cells ± SD. For the same molecule, the Necrosis (RPMI 8226 cells; RPMI 8226, 20 µM, 24 hours) was 18.5 ± 2.38 % of cells ± SD, the “Apoptosis (early + late)” value (RPMI 8226 cells; RPMI 8226, 20 µM, 48 hours) was 76.93 ± 14.34 % of cells ± SD and the Necrosis (RPMI 8226 cells; RPMI 8226, 20 µM, 48 hours) was 20.18 ± 11.99 % of cells ± SD. The “Inhibitory Mechanism” value (mushroom tyrosinase) was “mixed”, the IC50 [1] was 2.26 ± 0.38 µM and the IC50 [2] was 1.51 ± 0.14 µM. For the same molecule, the IC50 [3] was 13.8 ± 1.9 µM, the IC50 [4] was 9.32 ± 0.71 µM and the “Apoptosis (early + late)” value (A549 cells; A549, 2.5 µM, 24 hours) was 14.30±2.21 % of cells ± SD. For the same molecule, the Necrosis (A549 cells; A549, 2.5 µM, 24 hours) was 4.79±1.14 % of cells ± SD, the “Apoptosis (early + late)” value (A549 cells; A549, 2.5 µM, 48 hours) was 18.41±3.95 % of cells ± SD and the Necrosis (A549 cells; A549, 2.5 µM, 48 hours) was 4.11±1.44 % of cells ± SD. The “Apoptosis (early + late)” value (A549 cells; A549, 5 µM, 24 hours) was 14.82±2.42 % of cells ± SD, the Necrosis (A549 cells; A549, 5 µM, 24 hours) was 4.40±1.66 % of cells ± SD and the “Apoptosis (early + late)” value (A549 cells; A549, 5 µM, 48 hours) was 22.48±8.36 % of cells ± SD. For the same molecule, the Necrosis (A549 cells; A549, 5 µM, 48 hours) was 4.93±4.26 % of cells ± SD, the “Apoptosis (early + late)” value (A549 cells; A549, 10 µM, 24 hours) was 18.18±2.52 % of cells ± SD and the Necrosis (A549 cells; A549, 10 µM, 24 hours) was 4.87±1.35 % of cells ± SD. The “Apoptosis (early + late)” value (A549 cells; A549, 10 µM, 48 hours) was 27.17±11.71 % of cells ± SD, the Necrosis (A549 cells; A549, 10 µM, 48 hours) was 4.09±2.58 % of cells ± SD and the “Apoptosis (early + late)” value (A549 cells; A549, 20 µM, 24 hours) was 23.43±4.57 % of cells ± SD. For the same molecule, the Necrosis (A549 cells; A549, 20 µM, 24 hours) was 4.56±1.90 % of cells ± SD, the “Apoptosis (early + late)” value (A549 cells; A549, 20 µM, 48 hours) was 40.20±9.87 % of cells ± SD and the Necrosis (A549 cells; A549, 20 µM, 48 hours) was 4.87±3.04 % of cells ± SD. The “Apoptosis (early + late)” value (A549 cells; A549, 40 µM, 24 hours) was 73.96±19.94 % of cells ± SD, the Necrosis (A549 cells; A549, 40 µM, 24 hours) was 7.89±1.10 % of cells ± SD and the “Apoptosis (early + late)” value (A549 cells; A549, 40 µM, 48 hours) was 89.43±6.65 % of cells ± SD. The Necrosis (A549 cells; A549, 40 µM, 48 hours) was 8.81±6.51 % of cells ± SD, the Necrosis induction (A549 cells; A549, up to highest concentration 40 µM) was “did not induce necrosis” and the IC50 (A549 cells; A549, 24 h) was 27.7 µM. It also gave an IC50 (A549 cells; A549, 48 h) of 17.4 µM.
